EC50 data for 15 compounds are collected here from patent US10023519B2, “Cyclobutane containing carboxylic acid GPR120 modulators” (BRISTOL-MYERS SQUIBB COMPANY, priority 2014, dated 2018).

The structures appear in SMILES notation.

What is called EC50 is the concentration giving half of the maximal effect. A higher EC50 goes with a need for much substance.

Chain of human GPR120 (Q5NUL3 whole entry): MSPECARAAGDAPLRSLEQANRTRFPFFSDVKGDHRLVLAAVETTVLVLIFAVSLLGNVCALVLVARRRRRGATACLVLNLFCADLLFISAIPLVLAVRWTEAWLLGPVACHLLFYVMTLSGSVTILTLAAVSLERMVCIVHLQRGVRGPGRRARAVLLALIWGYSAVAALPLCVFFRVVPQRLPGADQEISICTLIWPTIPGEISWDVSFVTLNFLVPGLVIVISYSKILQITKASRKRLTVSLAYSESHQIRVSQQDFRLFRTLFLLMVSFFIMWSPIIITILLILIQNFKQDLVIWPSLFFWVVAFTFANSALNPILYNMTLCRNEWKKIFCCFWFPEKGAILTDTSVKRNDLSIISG

This assay concerns the target human GPR120 (Homo sapiens (Human), UniProt Q5NUL3). The assay is described as follows: GPR120 pERK AlphaScreen SureFire Assay (human). The format is cell-based. The note with it: CHO cells stably transfected with short form of human GPR120.
From the text: GPR120 activity was monitored by measuring phosphorylation of ERK (pERK), since G protein receptors are known to activate the ERK signaling cascade either directly and/or through recruitment of arrestin that serves as a scaffold for downstream signaling events.
GPR120 pERK AlphaScreen SureFire Assay
The human and mouse GPR120-mediated intracellular phosphorylated ERK assays were established using CHOA12 cells stably transfected with the short form of human or mouse GPR120 receptor. […] Cells were cryo preserved at a concentration of 2×10^7 cells/mL, in 90% Charcoal/Dextran FBS and 10% DMSO, and frozen in liquid nitrogen at a low passage number.
The flasks were placed in a tissue culture incubator overnight (37° C., 5% CO2). […] The next day, cells were serum starved in 30 μL of F-12 media without any serum or antibiotics for 2 hours at 37° C.
Cells were then stimulated with 50 nL of compound dilutions using ECHO liquid handler for 7 minutes at 37° C.
(§1) The lysis buffer was diluted 5-fold with water before use. […] The SureFire assay reagent mix was prepared by mixing 60 parts Reaction Buffer, 10 parts Activation Buffer, 1 part Donor Beads, 1 part Acceptor Beads (Perkin Elmer Cat. #TGRES10K). 3.5 μL/well of this reagent mix was manually added to the proxiplate with a multichannel pipettor. Plates were spun down at 1000 rpm for 2 minutes, followed by light-protected incubation at room temperature for 2 hours. The plates were read on the Alpha-technology compatible Envision multilabel plate reader using AlphaScreen protocol according to manufacturer's specifications. The agonist effect of compounds was expressed as 100× (average sample−average blank)/(average total−average blank) where sample is the luminescence activity in the presence of test compound, blank is equal to the luminescence activity in the presence of DMSO control and the total is signal induced by 50 μM linolenic acid as reference compound. Activation data for the test compound over a range of concentrations was plotted as percentage activation of the test compound (100%=maximum response). After correcting for background, EC50 values were determined.
The human and mouse GPR120-mediated intracellular phosphorylated ERK assays were also established using CHO-K1 cells stably transfected with the short form of human or mouse GPR120 receptor. […] Cells were cryo preserved at a concentration of 3×10^6 cells/mL, in 70% F-12, 20% Charcoal/Dextran FBS and 10% DMSO, and frozen in liquid nitrogen at a low passage number.
The flasks were placed in a tissue culture incubator overnight (37° C., 5% CO2).
Cells were then stimulated with 40 nL of compound dilutions using ECHO liquid handler for 7 minutes at 37° C.
as §1, with “compound.” for “compound. Activation data for the test compound over a range of concentrations was plotted as percentage activation of the test compound (100%=maximum response). After correcting for background, EC50 values were determined.”
Activation data for the test compound over a range of concentrations was plotted as percentage activation of the test compound (100%=maximum response). After correcting for background, EC50 values were determined.
With `CC(C)Oc1cccc(-c2ccc([C@H]3C[C@@H](OCC(=O)O)C3)cc2)c1` [Example 7, Cis-2-(3-(3′-isopropoxy-[1,1′-biphenyl]-4-yl)cyclobutoxy) acetic acid], the EC50 turned out to be 590 nM.

In the case of `CC(C)Oc1ccc(F)c(-c2ccc([C@H]3C[C@@H](OCC(=O)O)C3)cc2)c1F` [Example 15, Cis-2-(3-(2′,6′-difluoro-3′-isopropoxy-[1,1′-biphenyl]-4-yl)cyclobutoxy)acetic acid], the EC50 came to 800 nM.

In turn, `O=C(O)CO[C@H]1C[C@@H](c2ccc(-c3cc(OC(F)(F)F)ccc3Cl)cc2)C1` [Example 8, Cis-2-(3-(2′-chloro-5′-(trifluoromethoxy)-[1,1′-biphenyl]-4-yl)cyclobutoxy)acetic acid] registered an EC50 of 900 nM. This EC50 and that of the compound before are within 1.5-fold of each other.

With `Cc1ccc(Oc2cc(F)c(F)c(-c3ccc([C@H]4C[C@@H](OCC(=O)O)C4)cc3)c2)cc1` [Example 38, Cis-2-(3-(2′,3′-difluoro-5′-(p-tolyloxy)-[1,1′-biphenyl]-4-yl)cyclobutoxy)acetic acid], a half-maximal effect (EC50) was put at 540 nM. This EC50 is about 1.7-fold lower than that of the compound before.

Regarding `CC(C)Oc1ccc(F)c(-c2ccc(C3CC4(C3)CC4C(=O)O)cc2)c1` (single isomer, unassigned) [Example 41, 5-(2′-Fluoro-5′-isopropoxy-[1,1′-biphenyl]-4-yl)spiro[2.3]hexane-1-carboxylic acid], the EC50 turned out to be 32000 nM.

Turning to `CC(C)Oc1ccc(F)c(-c2ccc(C3CC(CC(=O)O)C3)cc2)c1` (stereo not drawn) [Example 43, 2-(3-(2′-Fluoro-5′-isopropoxy-[1,1′-biphenyl]-4-yl)cyclobutyl)acetic acid], the EC50 was 210 nM.

Regarding `CC(C)Oc1cccc(-c2ccc([C@H]3C[C@@H](OCC(=O)O)C3)cc2)c1F` [Example 10, Cis-2-(3-(2′-fluoro-3′-isopropoxy-[1,1′-biphenyl]-4-yl)cyclobutoxy) acetic acid], the EC50 is 1020 nM.

Regarding `O=C(O)[C@H]1C[C@@H](Oc2ccc(-c3cc(Oc4ccccc4)ccc3F)cc2)C1` [Example 65, Cis-3-((2′-fluoro-5′-phenoxy-[1,1′-biphenyl]-4-yl)oxy)cyclobutanecarboxylic acid], a half-maximal effect (EC50) was put at 2270 nM.

Compound `CC(C)Oc1ccc(F)c(-c2ccc(C[C@H]3C[C@@H](CC(=O)O)C3)cc2)c1` [Example 51, 2-(Cis-3-((2′-fluoro-5′-isopropoxy-[1,1′-biphenyl]-4-yl)methyl)cyclobutyl)acetic acid] gave an EC50 of 560 nM. Compared with the last compound, the EC50 is about 4.1-fold lower.

In turn, `Cc1ccc(Oc2ccc(F)c(-c3ccc([C@H]4C[C@@H](OCC(=O)O)C4)cc3)c2)nn1` [Example 29, Cis-2-(3-(2′-fluoro-5′-((6-methylpyridazin-3-yl)oxy)-[1,1′-biphenyl]-4-yl)cyclobutoxy)acetic acid] had an EC50 of 5000 nM.

Regarding `CC(C)Oc1ccc(F)c(-c2ccc([C@H]3C[C@H](CC(=O)O)C3)cc2)c1` [Example 44, 2-(Trans-3-(2′-fluoro-5′-isopropoxy-[1,1′-biphenyl]-4-yl)cyclobutyl)acetic acid], the EC50 came out at 140 nM.

Turning to `CC(C)Oc1ccc(F)c(-c2ccc(C3CC4(C3)CC4C(=O)O)cc2)c1` (single isomer, unassigned) [Example 42, 5-(2′-Fluoro-5′-isopropoxy-[1,1′-biphenyl]-4-yl)spiro[2.3]hexane-1-carboxylic acid], a half-maximal effect (EC50) was put at 2210 nM.

As to `O=C(O)CO[C@H]1C[C@@H](c2ccc(-c3cc(Oc4cccc(F)c4)ccc3F)cc2)C1` [Example 32, Cis-2-(3-(2′-fluoro-5′-(3-fluorophenoxy)-[1,1′-biphenyl]-4-yl)cyclobutoxy)acetic acid], the EC50 amounted to 230 nM.

In turn, `O=C(O)COCCC[C@H]1C[C@@H](OCc2cccc(Oc3ccccc3)c2)C1` [Example 59, 2-(3-(Cis-3-(3-phenoxybenzyloxy)cyclobutyl)propoxy)acetic acid] yielded an EC50 of 520 nM.

Compound `CC(C)Oc1ccc(F)c(-c2ccc([C@H]3C[C@@H](OCC(=O)O)C3)cc2)c1` [Example 2, Cis-2-(3-(2′-fluoro-5′-isopropoxy-[1,1′-biphenyl]-4-yl)cyclobutoxy)acetic acid] displayed an EC50 of 530 nM.
